{
  "source": "patent US7271190B2",
  "about": "“Indazole compounds as β3 adrenoceptor agonist” (Asahi Kasei Pharma Corporation, priority 2001, dated 2007)",
  "key": {"human β3": {"target": "T1, human β3 (Homo sapiens, UniProt P13945)", "T1 construct": "used as a probe to obtain the full length human β3 gene from a human genomic library; expressed in transfected cells; host or cells: CHO (Chinese hamster ovary) cells, pcDNA3 vector", "T1 sequence (P13945 whole entry)": "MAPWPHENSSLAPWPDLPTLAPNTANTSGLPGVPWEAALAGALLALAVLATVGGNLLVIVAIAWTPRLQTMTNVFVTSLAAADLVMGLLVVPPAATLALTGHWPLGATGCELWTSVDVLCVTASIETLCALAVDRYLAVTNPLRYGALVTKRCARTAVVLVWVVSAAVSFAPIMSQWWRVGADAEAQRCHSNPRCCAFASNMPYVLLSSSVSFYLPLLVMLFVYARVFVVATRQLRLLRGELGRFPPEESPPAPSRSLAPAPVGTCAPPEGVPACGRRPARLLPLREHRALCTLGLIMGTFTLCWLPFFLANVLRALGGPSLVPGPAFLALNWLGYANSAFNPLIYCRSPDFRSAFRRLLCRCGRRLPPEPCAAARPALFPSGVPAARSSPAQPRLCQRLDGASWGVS", "assay": "Human β3-agonist activities (cAMP in transfected CHO cells)", "assay_type": "cell-based", "conditions": "for EC50: CHO cells expressing human β3, cAMP, 30 minutes; for Emax: CHO, read-out: Intrinsic activity*", "procedure": "Human β3-Agonist Activities\nHuman β3-agonist activities were determined using CHO (Chinese hamster ovary) cells transfected with pcDNA3 (mfd. by Invitrogen) to which human β3 gene had been inserted. Human β3 fragment was first obtained from human adipose tissue cDNA (mfd. by Clonetech) by PCR using the primer of β3 (Krief, et al., J. Clin. Invest., vol. 91, pp. 344-349 (1993)). The human β3 fragment thus obtained was used as a probe to obtain the full length human β3 gene from a human genomic library (mfd. by Clonetech). The above cells were cultured in a Ham F-12 medium supplemented with 10% fetal bovine serum, 400 μg/mL geneticin (Gibco BRL), 100 U/mL penicillin and […] streptomycin. After placing these cells (5×10^5) into a 6-well plate and culturing them for 24 hours, they were allowed to stand on a serum-free Ham F-12 medium for 2 hours. The compound was first dissolved in DMSO, repeatedly diluted by ten times with Ham F-12 supplemented with 1 mM isobutylmethyl-xanthine and 1 mM ascorbic acid to a final concentration of from 10^−5 to 10^−12 M, and then added to the cells. After the cells were cultured for 30 minutes, the medium was removed, followed by addition of 0.5 mL of 1 N NaOH. The medium was allowed to stand for 20 minutes and then 0.5 mL of 1 N acetic acid was added to the medium. The medium was stirred and then centrifuged, followed by quantitating cAMP with cAMP EIA kit (mfd. by Cayman). Isoproterenol was purchased from RBI (Research Biochemicals International)."}, "ddy mice": {"test_system": "ddy mice", "assay": "Toxicity test, oral, mice", "assay_type": "in vivo", "conditions": "orally, 100 mg/kg, 6-week old male ddy mice, eight animals", "procedure": "Each of the present compounds synthesized in Examples 1 and 2 were orally administered to 6-week old male ddy mice (CHARLES RIVER JAPAN) at 100 mg/kg. […] The other compounds, which achieved the same results, were also shown to have a low toxicity."}, "[1]": {"conditions": "Relative activities (%) as compared with isoproterenol"}},
  "note": "Where a name gives a salt, the structure may show the parent alone.",
  "data": [
    {"smiles": "CCOC(=O)c1[nH]c2cc(OCCNC[C@H](O)c3cccc(NS(C)(=O)=O)c3)ccc2c1C", "note": "[Example 1, ethyl (R)-6-[2-[2-(3-methylsulfonylamino)phenyl-2-hydroxyethylamino]ethoxy]-3-methyl-1H-indole-2-carboxylate hydrochloride]", "values": [
      {"measurement": "EC50", "setting": "human β3", "value": 15, "unit": "nM"},
      {"measurement": "Emax", "setting": "human β3; [1]", "value": 97, "unit": "%"},
      {"measurement": "animals found dead", "setting": "ddy mice", "value": "none of the eight animals were found to be dead"}
    ]},
    {"smiles": "Cc1c(C(=O)O)[nH]c2cc(OCCNC[C@H](O)c3cccc(NS(C)(=O)=O)c3)ccc12", "note": "[Example 2, (R)-6-[2-[2-(3-methylsulfonylamino)phenyl-2-hydroxyethylamino]ethoxy]-3-methyl-1H-indole-2-carboxylic acid]", "values": [
      {"measurement": "EC50", "setting": "human β3", "value": 18, "unit": "nM"},
      {"measurement": "Emax", "setting": "human β3; [1]", "value": 124, "unit": "%"},
      {"measurement": "animals found dead", "setting": "ddy mice", "value": "none of the eight animals were found to be dead"}
    ]},
    {"smiles": "CCOC(=O)CCc1c(C)[nH]c2cc(OCCNC[C@H](O)c3cccc(NS(C)(=O)=O)c3)ccc12", "note": "[Example 13, ethyl (R)-3-[6-[2-[2-(3-methylsulfonylamino)phenyl-2-hydroxyethylamino]ethoxy]-2-methyl-1H-indol-3-yl]propionate]", "values": [
      {"measurement": "EC50", "setting": "human β3", "value": 23, "unit": "nM"},
      {"measurement": "Emax", "setting": "human β3; [1]", "value": 38, "unit": "%"}
    ]},
    {"smiles": "CCOC(=O)CCc1c(CC)[nH]c2cc(OCCNC[C@H](O)c3cccc(NS(C)(=O)=O)c3)ccc12", "note": "[Example 20]", "values": [
      {"measurement": "EC50", "setting": "human β3", "value": 32, "unit": "nM"},
      {"measurement": "Emax", "setting": "human β3; [1]", "value": 55, "unit": "%"}
    ]},
    {"smiles": "Cc1c(-c2cccnc2)[nH]c2cc(OCCNC[C@H](O)c3cccc(NS(C)(=O)=O)c3)ccc12", "note": "[Example 72, (R)-N-[3-[1-hydroxy-2-[2-(3-methyl-2-pyridin-3-yl-1H-indol-6-yloxy)ethylamino]ethyl]phenyl]methanesulfonamide]", "values": [
      {"measurement": "EC50", "setting": "human β3", "value": 2.8, "unit": "nM"},
      {"measurement": "Emax", "setting": "human β3; [1]", "value": 105, "unit": "%"}
    ]},
    {"smiles": "CCc1c(-c2cccnc2)[nH]c2cc(OCCNC[C@H](O)c3cccc(NS(C)(=O)=O)c3)ccc12", "note": "[Example 73, (R)-N-[3-[2-[2-(3-ethyl-2-pyridin-3-yl-1H-indol-6-yloxy)ethylamino]-1-hydroxyethyl]phenyl]methanesulfonamide]", "values": [
      {"measurement": "EC50", "setting": "human β3", "value": 3.5, "unit": "nM"},
      {"measurement": "Emax", "setting": "human β3; [1]", "value": 75, "unit": "%"}
    ]},
    {"smiles": "Cc1c(-c2ccncc2)[nH]c2cc(OCCNC[C@H](O)c3cccc(NS(C)(=O)=O)c3)ccc12", "note": "[Example 74, (R)-N-[3-[1-hydroxy-2-[2-(3-methyl-2-pyridin-4-yl-1H-indol-6-yloxy)ethylamino]ethyl]phenyl]methanesulfonamide]", "values": [
      {"measurement": "EC50", "setting": "human β3", "value": 3.9, "unit": "nM"},
      {"measurement": "Emax", "setting": "human β3; [1]", "value": 71, "unit": "%"}
    ]},
    {"smiles": "Cc1c(C2CCCN(C(=O)OC(C)(C)C)C2)[nH]c2cc(OCCNC[C@H](O)c3cccc(NS(C)(=O)=O)c3)ccc12", "note": "(stereo partly drawn) [Example 75, (R)-N-[3-[2-[2-[2-(N′-t-butyloxycarbonylpiperidin-3-yl)-3-methyl-1H-indol-6-yloxy]ethylamino]-1-hydroxyethyl]phenyl]methanesulfonamide]", "values": [
      {"measurement": "EC50", "setting": "human β3", "value": 4.4, "unit": "nM"},
      {"measurement": "Emax", "setting": "human β3; [1]", "value": 79, "unit": "%"}
    ]},
    {"smiles": "Cc1c(C2CCCNC2)[nH]c2cc(OC[C@@H](O)NCCc3cccc(NS(C)(=O)=O)c3)ccc12", "note": "(stereo partly drawn) [Example 76, (R)-N-[3-[2-[1-hydroxy-2-(3-methyl-2-piperidin-3-yl-1H-indol-6-yloxy)ethylamino]ethyl]phenyl]methanesulfonamide]", "values": [
      {"measurement": "EC50", "setting": "human β3", "value": 21, "unit": "nM"},
      {"measurement": "Intrinsic activity*", "setting": "human β3; [1]", "value": 76, "unit": "%"}
    ]},
    {"smiles": "Cc1c(-c2cccnc2)[nH]c2cc(OCCNC[C@H](O)c3ccc(F)c(NS(C)(=O)=O)c3)ccc12", "note": "[Example 79, (R)-N-[2-fluoro-5-[1-hydroxy-2-[2-(3-methyl-2-pyridin-3-yl-1H-indol-6-yloxy)ethylamino]ethyl]phenyl]methanesulfonamide]", "values": [
      {"measurement": "EC50", "setting": "human β3", "value": 3.4, "unit": "nM"},
      {"measurement": "Emax", "setting": "human β3; [1]", "value": 65, "unit": "%"}
    ]},
    {"smiles": "CCOC(=O)CCc1[nH]c2cc(OCCNC[C@H](O)c3ccc(F)c(NS(C)(=O)=O)c3)ccc2c1C", "note": "[Example 80, ethyl (R)-3-[6-[2-[2-(4-fluoro-3-methylsulfonylaminophenyl)-2-hydroxyethylamino]ethoxy]-3-methyl-1H-indol-2-yl]propionate]", "values": [
      {"measurement": "EC50", "setting": "human β3", "value": 2.8, "unit": "nM"},
      {"measurement": "Emax", "setting": "human β3; [1]", "value": 63, "unit": "%"}
    ]},
    {"smiles": "Cc1c(CCC(=O)N(C)C)[nH]c2cc(OCCNC[C@H](O)c3cccc(NS(C)(=O)=O)c3)ccc12", "note": "[Example 81]", "values": [
      {"measurement": "EC50", "setting": "human β3", "value": 2.8, "unit": "nM"},
      {"measurement": "Emax", "setting": "human β3; [1]", "value": 77, "unit": "%"}
    ]},
    {"smiles": "CCOC(=O)CCc1[nH]c2cc(OCCNC[C@H](O)c3cccc(NS(C)(=O)=O)c3)ccc2c1C", "note": "[Example 82, ethyl (R)-3-[3-methyl-6-[2-[2-(3-methylsulfonylaminophenyl)-2-hydroxyethylamino]ethoxy]-1H-indol-2-yl]propionate]", "values": [
      {"measurement": "EC50", "setting": "human β3", "value": 1.4, "unit": "nM"},
      {"measurement": "Emax", "setting": "human β3; [1]", "value": 81, "unit": "%"}
    ]},
    {"smiles": "Cc1n[nH]c2cc(OCCNC[C@H](O)c3cccc(NS(C)(=O)=O)c3)ccc12", "note": "[Example 84, (R)-N-[3-[2-[2-(3-methylindazol-6-yloxy)ethylamino]-1-hydroxyethyl]phenyl]methanesulfonamide hydrochloride]", "values": [
      {"measurement": "EC50", "setting": "human β3", "value": 12, "unit": "nM"},
      {"measurement": "Emax", "setting": "human β3; [1]", "value": 81, "unit": "%"}
    ]},
    {"smiles": "COc1n[nH]c2cc(OCCNC[C@H](O)c3cccc(NS(C)(=O)=O)c3)ccc12", "note": "[Example 86, (R)-N-[3-[2-[2-(3-methoxyindazol-6-yloxy)ethylamino]-1-hydroxyethyl]phenyl]methanesulfonamide]", "values": [
      {"measurement": "EC50", "setting": "human β3", "value": 26, "unit": "nM"},
      {"measurement": "Emax", "setting": "human β3; [1]", "value": 64, "unit": "%"}
    ]},
    {"smiles": "Cc1n[nH]c2cc(OCCNC[C@H](O)c3ccc(Cl)c(NS(C)(=O)=O)c3)ccc12", "note": "[Example 88, (R)-N-[5-[2-[2-(3-methylindazol-6-yloxy)ethylamino]-1-hydroxyethyl]-2-chlorophenyl]methanesulfonamide]", "values": [
      {"measurement": "EC50", "setting": "human β3", "value": 4.7, "unit": "nM"},
      {"measurement": "Emax", "setting": "human β3; [1]", "value": 52, "unit": "%"}
    ]},
    {"smiles": "CNS(=O)(=O)c1cc([C@@H](O)CNCCOc2ccc3c(C)n[nH]c3c2)ccc1O", "note": "[Example 89, (R)-N-methyl-[5-[2-[2-(3-methylindazol-6-yloxy)ethylamino]-1-hydroxyethyl]-2-hydroxyl]benzenesulfonamide]", "values": [
      {"measurement": "EC50", "setting": "human β3", "value": 11, "unit": "nM"},
      {"measurement": "Emax", "setting": "human β3; [1]", "value": 80, "unit": "%"}
    ]}
  ]
}
